Laboratory results taken from patent US20220169632A1, “METHODS AND MATERIALS FOR INCREASING OR MAINTAINING NICOTINAMIDE MONONUCLEOTIDE ADENYLYL TRANSFERASE-2 (NMNAT2) POLYPEPTIDE LEVELS” (University of Pittsburgh - Of the Commonwealth System of …, priority 2019, published 2022).

test system: NMNAT2; experiment: NMNAT2-Hibit nano-luciferase activity in stably transfected U87MG cells, various concentrations, 24 hours; type: cell-based; settings: U87MG cells stably transfected with NMNAT2-Hibit luc plasmid
Procedure: Selected compounds were tested in vitro. U87MG cells were stably transfected with NMNAT2-Hibit luc plasmid. Cells were treated with a test compound at various concentrations for 24 hours. Cells were then collected and assayed for nano-luciferase activity.

Row | SMILES | E: compound efficacy for NMNAT2 activation (concentration giving >25% increase in NMNAT2 luciferase activity)
1 | Cc1ccc(Cn2cc([C@H]3C[C@@H]3C(=O)NCc3ccco3)c3ccccc32)cc1 (racemic) [BC20293] | ++ (“++” >25% increase in NMNAT2 luciferase activity at >1 μM ≤25 μM.)
2 | Cc1ccc(Cn2cc([C@H]3C[C@@H]3C(=O)NCc3ccc(C)o3)c3ccccc32)cc1 (racemic) [BC20294] | + (“+” >25% increase in NMNAT2 luciferase activity at >25 μM.)
3 | Cc1ccc(Cn2cc([C@H]3C[C@@H]3C(=O)NCc3cccc(F)c3)c3ccccc32)cc1 (racemic) [BC20295] | + (“+” >25% increase in NMNAT2 luciferase activity at >25 μM.)
4 | Cc1ccc(Cn2cc([C@H]3C[C@@H]3C(=O)NCc3ccccc3C)c3ccccc32)cc1 (racemic) [BC20296] | ++ (“++” >25% increase in NMNAT2 luciferase activity at >1 μM ≤25 μM.)
5 | Cc1ccc(Cn2cc([C@H]3C[C@@H]3C(=O)NCc3cccc(C)c3)c3ccccc32)cc1 (racemic) [BC20297] | + (“+” >25% increase in NMNAT2 luciferase activity at >25 μM.)
6 | COc1ccccc1CNC(=O)[C@H]1C[C@@H]1c1cn(Cc2ccc(C)cc2)c2ccccc12 (racemic) [BC20298] | + (“+” >25% increase in NMNAT2 luciferase activity at >25 μM.)
7 | COc1cccc(CNC(=O)[C@H]2C[C@@H]2c2cn(Cc3ccc(C)cc3)c3ccccc23)c1 (racemic) [BC20299] | + (“+” >25% increase in NMNAT2 luciferase activity at >25 μM.)
8 | Cc1ccc(Cn2cc([C@H]3C[C@@H]3C(=O)NCCc3ccccc3)c3ccccc32)cc1 (racemic) [BC20300] | ++ (“++” >25% increase in NMNAT2 luciferase activity at >1 μM ≤25 μM.)
9 | Cc1ccc(Cn2cc([C@H]3C[C@@H]3C(=O)NCc3cccnc3)c3ccccc32)cc1 (racemic) [BC20301] | + (“+” >25% increase in NMNAT2 luciferase activity at >25 μM.)
10 | Cc1ccc(C)c(Cn2c(C)c([C@H]3C[C@@H]3C(=O)NCc3cccc(F)c3)c3ccccc32)c1 (racemic) [BC20302] | + (“+” >25% increase in NMNAT2 luciferase activity at >25 μM.)
11 | Cc1cccc(CNC(=O)[C@H]2C[C@@H]2c2c(C)n(Cc3cc(C)ccc3C)c3ccccc23)c1 (racemic) [BC20303] | + (“+” >25% increase in NMNAT2 luciferase activity at >25 μM.)
12 | Cc1ccc(C)c(Cn2c(C)c([C@H]3C[C@@H]3C(=O)NCc3ccco3)c3ccccc32)c1 (racemic) [BC20323] | + (“+” >25% increase in NMNAT2 luciferase activity at >25 μM.)
13 | COc1ccccc1CNC(=O)[C@H]1C[C@@H]1c1c(C)n(Cc2cc(C)ccc2C)c2ccccc12 (racemic) [BC20324] | + (“+” >25% increase in NMNAT2 luciferase activity at >25 μM.)
14 | COc1cccc(CNC(=O)[C@H]2C[C@@H]2c2c(C)n(Cc3cc(C)ccc3C)c3ccccc23)c1 (racemic) [BC20325] | + (“+” >25% increase in NMNAT2 luciferase activity at >25 μM.)
15 | Cc1ccc(C)c(Cn2c(C)c([C@H]3C[C@@H]3C(=O)NCCc3ccccc3)c3ccccc32)c1 (racemic) [BC20326] | ++ (“++” >25% increase in NMNAT2 luciferase activity at >1 μM ≤25 μM.)
16 | Cc1ccc(C)c(Cn2cc([C@H]3C[C@@H]3C(=O)NCc3ccco3)c3ccccc32)c1 (racemic) [BC20344] | + (“+” >25% increase in NMNAT2 luciferase activity at >25 μM.)
17 | Cc1ccc(C)c(Cn2cc([C@H]3C[C@@H]3C(=O)NCc3ccc(C)o3)c3ccccc32)c1 (racemic) [BC20345] | + (“+” >25% increase in NMNAT2 luciferase activity at >25 μM.)
